# Assay results taken from the supplement of paper PMC10949913.
# Assays:
# Conditions in all cases: 48 h
# [1] = system: CU-ACC2; assay: AC50 viability; higher = less potent
# Method in brief: (§1)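 Cells from three adrenocortical carcinoma lines were seeded at 500–1,000 cells/well in 5 µL medium in 1,536-well plates. Each library compound was added as 23 nL at 11 concentrations, and after 48 h CellTiter-Glo was added for 15 minutes at room temperature before reading luminescence. Plate-wise normalisation to vehicle and empty-well controls preceded curve fitting. AC50 and area under the curve were calculated only for inhibitory or non-responding curve classes.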
# [2] = system: NCI-H295R; assay: AC50 viability; higher = less potent
# Method in brief: as §1
# [3] = system: CU-ACC1; assay: area under concentration-response curve (viability) (AUC (a.u.)); higher = less active
# Method in brief: as §1
# [4] = system: CU-ACC2; assay: as above
# Method in brief: as §1
# [5] = system: NCI-H295R; assay: as above
# Method in brief: as §1
Compound,AC50 viability [1] [µM],AC50 viability [2] [µM],area under concentration-response curve [3],area under concentration-response curve [4],area under concentration-response curve [5]
CN1CCN(c2ccc(C(=O)Nc3n[nH]c4ccc(Cc5cc(F)cc(F)c5)cc34)c(NC3CCOCC3)c2)CC1,5.25,5.9,470,470,434
COC(=O)[C@@]12OC[C@]34[C@H]([C@@H](O)[C@@H]1O)[C@@]1(C)CC(=O)C(O)=C(C)[C@@H]1C[C@H]3OC(=O)[C@H](OC(=O)/C=C(\C)C(C)C)[C@@H]24,0.0417,0.263,251,280,316
C[C@H]1[C@H](OC(=O)CCC(=O)O)O[C@@H]2O[C@@]3(C)CC[C@H]4[C@H](C)CC[C@@H]1[C@@]24OO3,20.9,20.9,354,585,522
O=C(Nc1cc(Oc2cc(F)c(NC(=O)C3(C(=O)Nc4ccc(F)cc4)CC3)cc2F)ccn1)C1CC1,8.33,10.5,445,504,482
C=C1C(=O)[C@@]23C(CC[C@@H]1[C@H]2O)[C@@]12CO[C@]3(O)[C@@H](O)[C@@H]1C(C)(C)CC[C@@H]2O (some centres not stated),11.8,18.6,486,551,529
CC1=N[NH]C=C1C2=CC\3=C(S2)C(=O)NC(=N3)\[C@@H]4CC5CCN4CC5,10.5,23.5,,476,529
Cc1cc(Nc2ncc(Cl)c(Nc3ccccc3[S+](=O)([O-])C(C)C)n2)c(OC(C)C)cc1C1CCNCC1,16.6,5.9,439,495,419
O=C(Nc1ccc([N+](=O)[O-])cc1Cl)c1cc(Cl)ccc1O,1.48,1.48,411,471,481
COc1ccc(-c2c(-c3ccc(O)cc3O)n[nH]c2C)cc1,0.105,0.00296,,224,71.5
Cc1cc(O)c(-c2ccc([C@@H](C)CN)cc2)c2c1[nH]c(=O)c1sccc12,0.148,0.00105,203,223,128
CCC[C@@H](C=O)NC(=O)[C@H](CC(C)C)NC(=O)[C@H](CC(C)C)NC(=O)OCc1ccccc1,1.48,1.18,417,438,439
CCC[C@H](Nc1nc(-c2ccc(NC(=O)NCC)c(OC)c2)ncc1C)c1cccnc1,0.372,1.32,,338,333
c1ccc2c(-c3cnn4cc(-c5ccc(N6CCNCC6)cc5)cnc34)ccnc2c1,2.95,2.09,434,498,439
Cc1ccc(C(=O)OCc2ccc([C@@H](CN)C(=O)Nc3ccc4cnccc4c3)cc2)c(C)c1,9.11,12.9,507,591,534
CC(=O)O[C@@]12CO[C@@H]1C[C@H](O)[C@@]1(C)C(=O)[C@H](O)C3=C(C)[C@@H](OC(=O)[C@H](O)[C@@H](NC(=O)OC(C)(C)C)c4ccccc4)C[C@@](O)([C@@H](OC(=O)c4ccccc4)[C@H]21)C3(C)C,20.9,0.417,302,334,270
COc1cc2nc(-c3cc(F)ccc3O)nc(N[C@@H]3CNC[C@H]3C(C)(C)O)c2cc1OC,4.17,3.72,,430,412
CC[S+](=O)([O-])Nc1ccc2c(c1)/C(=C(/Nc1ccc(CN3CCCCC3)cc1)c1ccccc1)C(=O)N2,3.32,5.25,447,425,408
O=C1Nc2cc(Br)ccc2/C1=C1/Nc2ccccc2/C1=N\O,18.6,23.5,480,515,511
NC(=O)Nc1cc(-c2cccc(F)c2)sc1C(=O)N[C@H]1CCCNC1,8.33,2.35,397,432,410
C=C1C[C@@H]2CC[C@@]34C[C@H]5O[C@H]6[C@@H](O3)[C@H]3O[C@H](CC[C@@H]3O[C@H]6[C@H]5O4)CC(=O)C[C@@H]3[C@@H](OC)[C@@H](C[C@H](O)CN)O[C@H]3C[C@H]3O[C@@H](CC[C@@H]1O2)C[C@@H](C)C3=C,3.4,0.00959,,461,436

Compound,AC50 viability [1] [µM],AC50 viability [2] [µM],area under concentration-response curve [3],area under concentration-response curve [4],area under concentration-response curve [5]
N[S+](=O)([O-])OC[C@@H]1C[C@@H](n2ccc3c(N[C@H]4CCc5ccccc54)ncnc32)C[C@@H]1O,0.468,1.66,467,360,468
NC(=O)Nc1sc(-c2ccc(F)cc2)cc1C(N)=O,8.33,5.9,511,559,485
CN(C)Cc1ccc([S+](=O)([O-])n2ccc(/C=C/C(=O)NO)c2)cc1,9.34,16.6,461,496,465
N#Cc1cc2cc(CN3CCC(Nc4ncnc5sc(CC(F)(F)F)cc45)CC3)c(O)cc2n1Cc1cn[nH]c1,18.6,18.6,527,565,501
CC(C)COCC(CN(Cc1ccccc1)c1ccccc1)N1CCCC1 (configuration not stated),26.3,23.5,,583,536
Oc1cccc(-c2nc(N3CCOCC3)c3oc4ncccc4c3n2)c1,0.332,2.09,401,427,404
N#CC(c1ccnc(NCCc2cccnc2)n1)c1nc2ccccc2s1 (configuration not stated),16.6,20.9,509,493,410
CC(=O)O[C@H]1C(=O)[C@]2(C)[C@@H](O)C[C@H]3OC[C@@]3(OC(C)=O)C2[C@H](OC(=O)C4=CC=CC=C4)[C@]5(O)C[C@H](OC(=O)[C@H](O)[C@@H](NC(=O)C6=CC=CC=C6)C7=CC=CC=C7)\C(=C1/C5(C)C)C (some centres not stated),8.33,0.209,424,473,379
FC(F)(F)c1ccc(Nc2nc(-c3c(C(F)(F)F)nc4ccccn34)cs2)cc1,20.9,5.25,,529,413
CN(C)c1ccc2cc(C(=O)N[C@@H](CCCNC(=N)CCl)C(=O)NCc3ccccc3)ccc2c1,0.118,11.8,,276,247
COC1=CC(=C2C(=O)N(COC/3=C/C(=O)N4\C=C/C=C(OCCN5CCCCC5)\C4=N3)[S+]([O-])(=O)C2=C1)C(C)C,20.9,37.2,,584,541
O=C(O)c1ccc2cc(-c3ccc(O)c(C45CC6CC(CC(C6)C4)C5)c3)ccc2c1,5.25,3.72,,452,474
COc1cc2c(Nc3ccc(NC(=O)c4ccccc4)cc3)ncnc2cc1OCCCN1CCOCC1,20.9,18.6,,566,505
O=C(NCc1ccc([S+](=O)([O-])c2cccc(C(F)(F)F)c2)cc1)c1cnc2[nH]ncc2c1,0.0186,,347,362,407
CC(C)(N)c1ccc(-c2nc3ccccc3nc2-c2ccccc2)cc1,0.372,,336,297,354
CCN(CC)C(=S)SSC(=S)N(CC)CC,14.8,,366,465,472
Nc1ncnc2c1c(-c1cccc(OCc3ccccc3)c1)cn2[C@H]1C[C@H](CN2CCCC2)C1,14.8,18.6,,444,358
Nc1nc(Nc2ccc3c(c2)CC[C@@H](N2CCCC2)CC3)nn1-c1cc2c(nn1)-c1ccccc1CCC2,23.5,23.5,,534,441
C[C@@H](Oc1cc(-c2cnn(C3CCNCC3)c2)cnc1N)c1c(Cl)ccc(F)c1Cl,16.6,3.72,,407,353
Cn1ncc(NC(=O)c2nc(-c3c(F)cccc3F)sc2N)c1N1CC[C@@H](N)[C@H](F)CC1,18.6,,525,500,516

Compound,AC50 viability [1] [µM],AC50 viability [2] [µM],area under concentration-response curve [3],area under concentration-response curve [4],area under concentration-response curve [5]
O=C(NCc1ccccc1)c1csc(Nc2ccncn2)n1,18.6,23.5,,501,482
CC(C)(C)OC(=O)CN(Cc1ccc(Cl)cc1)Cc1ccc([N+](=O)[O-])s1,37.2,,410,479,405
CN(C)C1=CC=C(C=C1)C(C2=CC=C(C=C2)N(C)C)=C/3\C=C/C(/C=C3)=[N+](C)C,4.17,4.17,,,
C[N]1C=NC=C1[C@@](N)(C2=CC=C(Cl)C=C2)C3=CC=C4N(C)C(=O)\C=C(\C5=CC=CC(=C5)Cl)C4=C3,0.372,0.00105,,94.9,88.8
CN(C)C(=O)c1cc2cnc(Nc3ccc(N4CCNCC4)cn3)nc2n1C1CCCC1,33.2,,434,439,474
c1ccc(-c2cc(CCC3CCNCC3)c3ccccc3n2)cc1,23.5,20.9,,561,469
CNC(=O)c1nn(C)c2c1C(C)(C)Cc1cnc(Nc3ccc(N4CCN(C)CC4)cc3)nc1-2,7.42,18.6,,483,473
CCOc1cc2ncc(C#N)c(Nc3ccc(OCc4ccccn4)c(Cl)c3)c2cc1NC(=O)/C=C/CN(C)C,16.6,,562,572,543
Cc1cc(C(=O)Nc2cc(Nc3ccc4c(/C=C/c5ccccn5)[nH]nc4c3)ccc2F)n(C)n1,23.5,23.5,,572,525
N[S+](=O)([O-])c1ccc(Cc2c(-c3cccc(-c4ccccc4)c3)nn(-c3nc(C(=O)O)cs3)c2CC2CC2)cc1,5.9,,373,388,405
Cc1cc2c(cc1CC(=O)c1sccc1[S+](=O)([O-])Nc1onc(C)c1Cl)OCO2,0.105,0.00417,,242,127
CCn1cc(-c2ccnc3[nH]c(-c4cccc(CN(C)C)c4)cc23)c(-c2ccc(NC(=O)N(C)C)cc2)n1,18.6,18.6,,578,514
Nc1ccc(C(=O)Nc2cccc(-c3nc(N4CCOCC4)c4oc5ncccc5c4n3)c2)cn1,1.48,,434,414,396
O=C(Nc1cccc(Nc2ncc(Br)c(NCCc3cnc[nH]3)n2)c1)N1CCCC1,16.6,23.5,,418,397
CC1(C)SCCN([S+](=O)([O-])c2ccc(OCC#CCO)cc2)[C@H]1C(=O)NO,2.95,,446,437,421
O=C(Nc1cccc(Cl)c1)Nc1ncc(CCNc2ncnc3ccsc23)s1,9.34,33.2,,481,342
Cc1cc(OCc2nnc(SC3CCCC3)n2-c2cccnc2)ccc1-c1ccc([S+](C)(=O)[O-])cc1,2.35,,271,324,362
CC(C)(C)c1cc(NC(=O)Nc2ccc(-c3cn4c(n3)sc3cc(OCCN5CCOCC5)ccc34)cc2)no1,3.72,,489,539,511
